Assay [1] relates to Pseudomonas aeruginosa PA BAA-2110. Description: Broth microdilution, PA BAA-2110 (lung infection in cystic fibrosis). It is filed as cell-based, Pseudomonas aeruginosa (BAA-2110). The following applies: PA BAA-2110. As to the method:
(§1) Bacteria strains involved in lung infection in cystic fibrosis patients (PA-BAA 2110) and ear-eye infections (PA-CRM 9027) are treated with exemplary variant peptides, such as E1AM2 and Q19L.
(§2) Examination of the potency of modified short peptides against PA and SA strains was performed by using the broth microdilution protocol from the Clinical and Laboratory Standards Institute (CLSI) guidelines (CLSI 2012) as described. Briefly, five freshly plated bacteria colonies were grown in cation adjusted MH2 broth (BD Biosciences) in a shaker incubator at 37° C., 220 RPM. Cells were grown to an optical density (OD600) of ~0.2 measured using a Microplate Spectrophotometer (Molecular Devices Spectra Max Plus). 100 μL of microbial culture containing ~5×10^5 CFU/mL of bacteria in the respective broths were introduced into each well containing 100 μL of peptides and incubated overnight at 37° C. Next, to check the bactericidal effects, 100 μL from each well was transferred and spread on sterile MH2 agar plates. The plates were incubated overnight at 37° C. and the number of colonies forming units (CFU) were calculated the following day. Readings of bacteria grown in media without any treatments were normalized to 100% as media control. For the mixed infection study, three freshly plated bacteria colonies each from PA, SA and ST plates were grown together in cation adjusted MH2 broth and proceeded as described above.
(Dilution methods test growth across graded concentrations, often in twofold steps.)

The test system of assay [2] is Pseudomonas aeruginosa PA CRM-9027. Description: Broth microdilution, PA CRM-9027 (ear-eye infections). It is filed as cell-based, Pseudomonas aeruginosa (CRM-9027). The following applies: PA CRM-9027. On the procedure:
as §1, §2

Assay [3] deals with Pseudomonas aeruginosa (PA). The assay is described as follows: Murine excisional wound infection model (PA). It counts as in vivo, mouse infected with Pseudomonas aeruginosa. The following applies: mouse; 1x MBC (6.25 μM), 24 h treatment, vs PBS; p<0.05. As to the method: Excisional wounds in mice are infected with Pseudomonas aeruginosa (PA) for 24 hrs followed by 24 hrs of treatment with E1AM2 or PBS. Each circle represents a single mouse. Statistical analysis was performed by the two-tailed t-test using GraphPad, *p<0.05.
Excisional wounds infected with PA for 24 hours being treated for 24 hours with the E1AM2 V8LQ19L hydrogel at its 1X MBC concentration, compared with hydrogel-only treatment in a mouse model. […] Each circle in the graph represents one mouse. Statistical significance was determined using a t-test, with *p<0.05. The data are presented as colony-forming unit counts presented as means±SEM. […] Collectively, the E1AM2 V8LQ19L peptide showcases unique functionality, combining antibacterial effectiveness and biocompatibility for dermal applications.
The murine wound infection model was carried out as described in 4 with minor modifications. Before infection, PA strain was diluted to an OD ~0.5, and normalized to 1-3×10^7 CFU/ml. A 6 mm biopsy punch (Integra Miltex, New York, USA) was used to create a full-thickness wound, and an inoculum of ~10^5 CFU of the bacteria in a 5 μl volume was applied. The wound was sealed with a Finn chamber on a Scanpor tape (Smart Practice, Phoenix, AZ, USA), and the chamber was fixed to the skin via Tegaderm patch (3M™, Minnesota, USA). […]

The test system of assay [4] is critical and high priority pathogens (WHO). The assay is described as follows: Antibacterial effect against WHO critical and high priority pathogens. It counts as cell-based. To be noted: FIG. 10.
Assay [5] has as its system pathogens isolated from the infected tissues of DFU patients. Description: Antibacterial test on pathogens from infected DFU tissues. It is filed as cell-based. As to the method: The varied colours and morphologies highlight the presence of multiple species and a diverse bacterial population within the infected tissues. Method: Freshly debrided infected tissues from DFU patients are weighed and immersed in 2 ml of MHB (Mueller-Hinton Broth) media for 48 hours to soften the tissues, facilitating the release of bacteria. These samples are subsequently sonicated for 1 minute at a 15A amplitude using a water bath sonicator to release the bacteria. The resultant slurry is plated on MHB media supplemented with 1.5% agar to isolate all bacteria. These bacterial isolates are then evaluated for their antibacterial efficacy following the CLSI (Clinical and Laboratory Standards Institute) guidelines.
In some examples, the effective bacteria killing concentration range for the variant peptides can be, but is not limited to at least about 1.5 μM, at least about 2 μM, at least about 2.5 μM, at least about 5 μM, at least about 7.5 μM, at least about 10 μM, at least about 12.5 μM, at least about 15 μM, at least about 15 μM, at least about 17.5 μM, at least about 20 μM, at least about 25 μM, at least about 35 μM, or at least about 45 μM. In one example, the effective biofilm disruption concentration ranges from about 1.5 μM-25 μM or 1.5 μM-50 μM. In another example, the concentration is between about 40 μM to 50 μM.

The nature of assay [6]: Comparison of AMPs in clinical trial with V8LQ19L (Table 13). The following applies: ✓ / X.
The subject of assay [7] is Staphylococcus aureus (SA). Description: Antimicrobial resistance evolution assay, SA. It is filed as cell-based. To be noted: serial passaging; resistance = >4-fold MIC change. An excerpt: The development of antimicrobial resistance is defined by greater than a 4-fold change to their initial minimum inhibitory concentration (MIC) at day 1. Exemplary bacteria strains Pseudomonas aeruginosa (PA) and Staphylococcus aureus (SA) are subjected to continuous daily serial passaging over several days, with treatment of exemplary variant peptides E1AM2 (SEQ ID NO: 2) and Q19L (SEQ ID NO: […]) at subinhibitory concentrations. […] The treatments were discontinued when the MIC increased by more than four-fold from the initial MIC or when MIC reached >100 μM.
Briefly, sequential passaging of PA, and SA cells was done with sub-inhibitory concentrations of antibiotics or E1AM2 up to 4 weeks. The cells grown in those concentrations of antibiotics or peptides were diluted to A600 nm (OD600) of ~0.2 and serially passaged daily with the same concentrations at 37° C. with agitation at 24 h intervals.

What is called MBC is the smallest concentration meeting the test's criterion for killing. Usually MIC stands for the lowest concentration found to suppress growth. Lower therefore signals inhibition by little substance.

Entries after “also recorded” stand apart in the source; their conditions may differ. Where no end group is shown, it is not given here.

With “E1AM2: untagged (E1AM2), KKLLKKWVKLSKKALKLAQSL”, in assay [1], the MBC is 6.25 µM and the MIC was 3.125 µM. In assay [2], this substance returned an MBC of 3.125 µM and an MIC of 3.125 µM. Further, in assay [3], the “PA infection at wound site (CFU)” value is on record as “effective reduction of PA infection; also recorded: significant bacterial clearance at the wound site”.
Consider KKLLKKWLKLSKKALKLALSL-NH2 [V8LQ19L], for which the “antibacterial effect against WHO priority pathogens” value in assay [4] is on record as “potent fast-acting, broad-spectrum antibacterial effect”. The “MIC values against WHO priority pathogens (in words)” value in assay [4] (compared to pexiganan and antibiotics) is listed as “the lowest minimum inhibitory concentration (MIC) values”. Also, in assay [5] (FIG. 11), the “elimination of pathogens in DFU tissue (in words)” value is reported as “effective elimination of pathogens”. The “elimination of bacteria from DFU tissue” value in assay [5] (at 50 μM) was “over 99%”. In addition, in assay [6], the Broad spectrum activity entry was “✓” and the Healing support result was “✓”. Besides, the “development of antimicrobial resistance, SA” value in assay [7] is “effective in preventing the acquisition of AMR”.

(Values after patent US20260327263A1, “Anti-Bacterial Peptides” (priority 2023, published 2026).)
